# Data as given in ChEMBL document CHEMBL5696443 (Clin Cancer Res, 2016).
# Active and inactive are the calls of the source. The calls are words filed in the database; no cut-off is given here.
# Columns and labels:
# [1] = molecular target: Cyclin-dependent kinase 4/cyclin D1 (Homo sapiens) (UniProt P11802+P24385); assay: Inhibition of human CDK4/CyclinD1 at 1 uM using RB protein as substrate in presence of [gamma33P]-ATP by HotSpot assay relative to control; assay type: protein-complex assay
# [2] = tested on: EML4-ALK (Homo sapiens), Q9UM73+Q9HC35 [C1156Y]; details: BaF3, time 3-5 weeks
# BaF3 [3] = details: dose 50 mg/kg; route po; time 8 day
# [4] = molecular target: Platelet-derived growth factor receptor beta (Homo sapiens) (UniProt P09619); assay: Inhibition of human PDGFRbeta at 1 uM using poly (Glu, Tyr)4:1 as substrate in presence of [gamma33P]-ATP by HotSpot assay relative to control
# [5] = molecular target: Testis-specific serine/threonine-protein kinase 1 (Homo sapiens, UniProt Q9BXA7); assay: Inhibition of human TSSK1 using KKKVSRSGLYRSPSMPENLNRPR as substrate in presence of [gamma33P]-ATP by HotSpot assay
# [6] = tested on: Protein cereblon/ALK tyrosine kinase receptor/Echinoderm microtubule-associated protein-like 4 (Homo sapiens), Q9UM73+Q9HC35+Q96SW2 [UNDEFINED MUTATION]; details: BaF3, time 72.0 hrs
# in vitro = details: mouse, BaF3 cells
# [7] = molecular target: Hepatocyte growth factor receptor (Homo sapiens, UniProt P08581); assay: Inhibition of human MET using poly (Glu, Tyr)4:1 as substrate in presence of [gamma33P]-ATP by HotSpot assay
# [8] = molecular target: G protein-coupled receptor kinase 3 (Homo sapiens) (UniProt P35626); assay: Inhibition of human ADRBK2 at 1 uM using casein as substrate in presence of [gamma33P]-ATP by HotSpot assay relative to control
# NCI-H2228 = assay: Antitumor activity against ALK positive human NCI-H2228 cells xenografted in CB-17/SCID orthotopic brain tumor mouse model assessed as median survival time at 25 mg/kg po administered daily and measured after 64 days (reference value: 28 days); assay type: functional; details: time 64 day
# [9] = molecular target: Wee1-like protein kinase (Homo sapiens) (UniProt P30291); assay: Inhibition of human WEE1 at 1 uM using CDK1 (D146N)/cyclin B1 as substrate in presence of [gamma33P]-ATP by HotSpot assay relative to control
# [10] = tested on: EML4-ALK (Homo sapiens), Q9UM73+Q9HC35 [UNDEFINED MUTATION]; details: BaF3, dose 500.0 nmol/L, time 3-5 weeks
# [11] = tested on: EML4-ALK (Homo sapiens), Q9UM73+Q9HC35 [L1152P]; details: BaF3, dose 500.0 nmol/L, time 3-5 weeks
# BaF3 [12] = assay: In vivo inhibition of ALK signaling in mouse implanted with mouse BaF3 cells expressing EML4-ALK L1196M mutant assessed as inhibition of ALK phosphorylation at 25 mg/kg, po administered as single dose and measured at 6 to 24 hrs by ELISA; assay type: functional, organism-based; details: time 6-24 hrs
# [13] = molecular target: Serine/threonine-protein kinase TAO1 (Homo sapiens, UniProt Q7L7X3); assay: Inhibition of human TAOK1 using MBP as substrate in presence of [gamma33P]-ATP by HotSpot assay
# [14] = molecular target: Protein kinase C gamma type (Homo sapiens) (UniProt P05129); assay: Inhibition of human PKCG at 1 uM using ERMRPRKRQGSVRRRV as substrate in presence of [gamma33P]-ATP by HotSpot assay relative to control
# [15] = molecular target: Serine/threonine-protein kinase Sgk2 (Homo sapiens) (UniProt Q9HBY8); assay: Inhibition of human SGK2 at 1 uM using KGSGSGRPRTSSFAEG as substrate in presence of [gamma33P]-ATP by HotSpot assay relative to control
# [16] = molecular target: Dual specificity protein kinase CLK1 (Homo sapiens, UniProt P49759); assay: Inhibition of human CLK1 using MBP as substrate in presence of [gamma33P]-ATP by HotSpot assay
# [17] = tested on: EML4-ALK (Homo sapiens), Q9UM73+Q9HC35 [F1174C]; details: BaF3, dose 500.0 nmol/L, time 3-5 weeks
# NCI-H3122 = assay: Inhibition of ERK phosphorylation in ALK-positive human NCI-H3122 cells at 1 to 1000 nM incubated for 1 hrs by immunoblot analysis; assay type: cell-based; details: dose 1-1000 nM
# [18] = tested on: EML4-ALK (Homo sapiens), Q9UM73+Q9HC35 [L1198F]; details: BaF3, time 3-5 weeks
# [19] = molecular target: Ribosomal protein S6 kinase alpha-3 (Homo sapiens, UniProt P51812); assay: Inhibition of human RPS6kA3 using KKLNRTLSVA as substrate in presence of [gamma33P]-ATP by HotSpot assay
# [20] = tested on: EML4-ALK (Homo sapiens), Q9UM73+Q9HC35 [E1210K]; details: BaF3, time 3-5 weeks
# [21] = molecular target: Glycogen synthase kinase-3 alpha (Homo sapiens) (UniProt P49840); assay: Inhibition of human GSK3alpha at 1 uM using YRRAAVPPSPSLSRHSSPHQ(pS)EDEEE as substrate in presence of [gamma33P]-ATP by HotSpot assay relative to control
# [22] = molecular target: Protein kinase C beta type (Homo sapiens) (UniProt P05771); assay: Inhibition of human PKCb2 at 1 uM using ERMRPRKRQGSVRRRV as substrate in presence of [gamma33P]-ATP by HotSpot assay relative to control
# [23] = molecular target: Serine/threonine-protein kinase Nek9 (Homo sapiens, UniProt Q8TD19); assay: Inhibition of human NEK9 using MBP as substrate in presence of [gamma33P]-ATP by HotSpot assay
# [24] = molecular target: Casein kinase II subunit alpha' (Homo sapiens) (UniProt P19784); assay: Inhibition of human CK2a2 at 1 uM using RRRDDDSDDD as substrate in presence of [gamma33P]-ATP by HotSpot assay relative to control
# [25] = molecular target: Cyclin-dependent kinase 1/cyclin B1 (Homo sapiens) (UniProt P06493+P14635); assay: Inhibition of human CDK1/CyclinB at 1 uM using RB protein as substrate in presence of [gamma33P]-ATP by HotSpot assay relative to control; assay type: protein-complex assay
# [26] = molecular target: Mitogen-activated protein kinase kinase kinase kinase 4 (Homo sapiens) (UniProt O95819); assay: Inhibition of human MAP4K4 at 1 uM using MBP as substrate in presence of [gamma33P]-ATP by HotSpot assay relative to control
# [27] = molecular target: Serine/threonine-protein kinase SIK2 (Homo sapiens, UniProt Q9H0K1); assay: Inhibition of human SIK2 using AMARAASAAALARRR as substrate in presence of [gamma33P]-ATP by HotSpot assay
# Serine/threonine-protein kinase Sgk2 (Homo sapiens), sequence (Q9HBY8 whole entry): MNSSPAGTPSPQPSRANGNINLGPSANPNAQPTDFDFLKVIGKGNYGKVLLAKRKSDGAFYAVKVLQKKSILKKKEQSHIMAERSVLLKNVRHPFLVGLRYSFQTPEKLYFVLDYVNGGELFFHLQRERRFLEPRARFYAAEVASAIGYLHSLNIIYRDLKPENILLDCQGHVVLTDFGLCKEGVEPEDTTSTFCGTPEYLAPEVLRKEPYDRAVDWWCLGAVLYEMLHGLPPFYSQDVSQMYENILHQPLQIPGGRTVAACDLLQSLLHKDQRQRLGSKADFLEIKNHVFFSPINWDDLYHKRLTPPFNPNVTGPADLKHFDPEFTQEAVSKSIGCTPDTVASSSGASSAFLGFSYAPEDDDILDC
# Testis-specific serine/threonine-protein kinase 1, sequence (Q9BXA7 whole entry): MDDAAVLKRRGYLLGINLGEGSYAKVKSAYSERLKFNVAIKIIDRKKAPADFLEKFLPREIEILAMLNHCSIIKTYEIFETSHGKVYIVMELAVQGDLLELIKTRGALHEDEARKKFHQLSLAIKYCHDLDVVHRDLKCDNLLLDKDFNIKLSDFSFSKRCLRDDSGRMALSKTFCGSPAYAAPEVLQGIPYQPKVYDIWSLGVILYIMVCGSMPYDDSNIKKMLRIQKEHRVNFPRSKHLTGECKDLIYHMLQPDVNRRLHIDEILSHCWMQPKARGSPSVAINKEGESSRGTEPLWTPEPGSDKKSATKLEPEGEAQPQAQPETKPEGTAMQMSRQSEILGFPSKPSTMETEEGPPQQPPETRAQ
# Protein cereblon/ALK tyrosine kinase receptor/Echinoderm microtubule-associated protein-like 4 (Homo sapiens), Q9UM73+Q9HC35+Q96SW2 [UNDEFINED MUTATION], sequence (Q96SW2 whole entry, looked up, change not shown): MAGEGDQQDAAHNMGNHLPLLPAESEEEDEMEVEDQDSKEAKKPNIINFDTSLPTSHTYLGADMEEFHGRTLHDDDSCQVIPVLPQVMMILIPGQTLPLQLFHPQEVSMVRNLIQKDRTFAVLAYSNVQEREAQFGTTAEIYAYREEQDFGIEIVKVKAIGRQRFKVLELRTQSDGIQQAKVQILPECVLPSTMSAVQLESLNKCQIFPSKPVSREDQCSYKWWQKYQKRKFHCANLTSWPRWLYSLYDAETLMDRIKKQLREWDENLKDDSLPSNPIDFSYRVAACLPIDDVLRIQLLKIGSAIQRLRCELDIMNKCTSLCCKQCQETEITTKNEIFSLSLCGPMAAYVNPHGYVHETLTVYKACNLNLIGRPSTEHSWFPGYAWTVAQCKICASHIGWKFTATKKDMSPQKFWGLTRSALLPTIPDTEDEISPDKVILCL
# Protein cereblon/ALK tyrosine kinase receptor/Echinoderm microtubule-associated protein-like 4 (Homo sapiens), Q9UM73+Q9HC35+Q96SW2 [UNDEFINED MUTATION], sequence (Q9HC35 whole entry, looked up, change not shown): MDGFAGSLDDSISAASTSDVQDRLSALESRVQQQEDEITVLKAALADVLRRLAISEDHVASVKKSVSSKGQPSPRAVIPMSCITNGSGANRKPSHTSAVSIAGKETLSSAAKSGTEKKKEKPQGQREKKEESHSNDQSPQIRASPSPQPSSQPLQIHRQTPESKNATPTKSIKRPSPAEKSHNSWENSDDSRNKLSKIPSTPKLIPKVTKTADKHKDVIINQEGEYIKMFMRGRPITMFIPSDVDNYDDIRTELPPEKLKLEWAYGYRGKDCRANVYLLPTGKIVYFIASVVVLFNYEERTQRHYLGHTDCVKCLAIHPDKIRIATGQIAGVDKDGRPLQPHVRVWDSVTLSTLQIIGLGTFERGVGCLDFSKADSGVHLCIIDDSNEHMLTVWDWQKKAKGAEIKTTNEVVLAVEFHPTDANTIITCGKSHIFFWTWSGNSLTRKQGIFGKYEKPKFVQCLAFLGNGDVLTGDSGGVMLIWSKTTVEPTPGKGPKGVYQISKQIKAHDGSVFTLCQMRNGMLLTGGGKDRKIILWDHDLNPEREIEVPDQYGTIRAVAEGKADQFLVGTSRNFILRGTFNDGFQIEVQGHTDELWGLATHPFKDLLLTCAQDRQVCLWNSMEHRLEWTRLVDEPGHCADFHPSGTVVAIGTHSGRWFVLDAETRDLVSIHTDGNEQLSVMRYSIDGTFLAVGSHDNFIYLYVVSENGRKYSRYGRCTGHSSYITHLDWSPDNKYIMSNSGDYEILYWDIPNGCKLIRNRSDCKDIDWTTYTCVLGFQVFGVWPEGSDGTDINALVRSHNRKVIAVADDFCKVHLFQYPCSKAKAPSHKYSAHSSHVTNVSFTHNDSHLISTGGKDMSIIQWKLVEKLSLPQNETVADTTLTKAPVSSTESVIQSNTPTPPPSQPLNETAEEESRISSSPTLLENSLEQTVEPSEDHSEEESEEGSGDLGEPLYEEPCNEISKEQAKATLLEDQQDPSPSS
# Protein cereblon/ALK tyrosine kinase receptor/Echinoderm microtubule-associated protein-like 4 (Homo sapiens), Q9UM73+Q9HC35+Q96SW2 [UNDEFINED MUTATION], sequence (Q9UM73 whole entry, looked up, change not shown): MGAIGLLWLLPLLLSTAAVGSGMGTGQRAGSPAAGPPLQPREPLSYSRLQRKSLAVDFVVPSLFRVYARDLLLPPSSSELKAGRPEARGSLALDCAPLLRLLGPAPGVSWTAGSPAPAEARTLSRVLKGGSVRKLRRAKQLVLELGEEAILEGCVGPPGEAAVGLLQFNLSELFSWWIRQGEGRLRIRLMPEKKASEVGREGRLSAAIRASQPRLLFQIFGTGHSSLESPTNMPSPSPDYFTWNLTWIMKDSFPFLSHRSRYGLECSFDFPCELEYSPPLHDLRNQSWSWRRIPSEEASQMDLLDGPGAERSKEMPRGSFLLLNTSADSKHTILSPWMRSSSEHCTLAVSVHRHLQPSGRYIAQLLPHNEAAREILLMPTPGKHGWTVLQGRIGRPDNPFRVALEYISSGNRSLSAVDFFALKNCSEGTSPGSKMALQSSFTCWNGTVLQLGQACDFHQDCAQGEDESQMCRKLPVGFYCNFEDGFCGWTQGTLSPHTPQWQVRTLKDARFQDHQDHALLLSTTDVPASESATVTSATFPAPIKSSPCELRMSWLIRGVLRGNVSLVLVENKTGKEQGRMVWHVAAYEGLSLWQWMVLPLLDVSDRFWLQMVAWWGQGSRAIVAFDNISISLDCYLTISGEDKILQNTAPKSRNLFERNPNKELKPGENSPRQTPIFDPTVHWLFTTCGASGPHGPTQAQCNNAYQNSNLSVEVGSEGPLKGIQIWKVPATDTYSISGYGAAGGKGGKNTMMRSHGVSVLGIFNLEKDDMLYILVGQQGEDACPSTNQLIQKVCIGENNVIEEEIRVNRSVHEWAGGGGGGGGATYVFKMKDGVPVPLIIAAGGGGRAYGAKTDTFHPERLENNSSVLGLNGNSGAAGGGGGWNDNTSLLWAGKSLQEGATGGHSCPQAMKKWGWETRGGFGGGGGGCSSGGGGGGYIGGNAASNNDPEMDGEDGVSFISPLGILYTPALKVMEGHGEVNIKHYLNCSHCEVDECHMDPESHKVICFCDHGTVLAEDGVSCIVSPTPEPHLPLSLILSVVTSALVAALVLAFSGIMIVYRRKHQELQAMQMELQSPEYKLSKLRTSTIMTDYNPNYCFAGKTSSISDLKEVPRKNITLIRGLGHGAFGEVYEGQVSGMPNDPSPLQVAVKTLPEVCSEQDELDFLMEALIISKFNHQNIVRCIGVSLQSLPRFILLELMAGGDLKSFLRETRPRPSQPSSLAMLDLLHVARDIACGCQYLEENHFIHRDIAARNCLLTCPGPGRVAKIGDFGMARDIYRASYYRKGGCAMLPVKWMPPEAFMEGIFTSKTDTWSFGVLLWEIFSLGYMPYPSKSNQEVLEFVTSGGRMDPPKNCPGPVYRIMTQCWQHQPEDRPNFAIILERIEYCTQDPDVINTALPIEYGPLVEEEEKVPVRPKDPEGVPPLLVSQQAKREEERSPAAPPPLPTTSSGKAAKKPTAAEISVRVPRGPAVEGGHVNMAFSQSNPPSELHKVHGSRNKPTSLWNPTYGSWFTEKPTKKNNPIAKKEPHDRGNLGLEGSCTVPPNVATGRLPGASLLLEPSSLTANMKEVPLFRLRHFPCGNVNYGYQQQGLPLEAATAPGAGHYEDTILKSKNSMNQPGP
# Dual specificity protein kinase CLK1, sequence (P49759 whole entry): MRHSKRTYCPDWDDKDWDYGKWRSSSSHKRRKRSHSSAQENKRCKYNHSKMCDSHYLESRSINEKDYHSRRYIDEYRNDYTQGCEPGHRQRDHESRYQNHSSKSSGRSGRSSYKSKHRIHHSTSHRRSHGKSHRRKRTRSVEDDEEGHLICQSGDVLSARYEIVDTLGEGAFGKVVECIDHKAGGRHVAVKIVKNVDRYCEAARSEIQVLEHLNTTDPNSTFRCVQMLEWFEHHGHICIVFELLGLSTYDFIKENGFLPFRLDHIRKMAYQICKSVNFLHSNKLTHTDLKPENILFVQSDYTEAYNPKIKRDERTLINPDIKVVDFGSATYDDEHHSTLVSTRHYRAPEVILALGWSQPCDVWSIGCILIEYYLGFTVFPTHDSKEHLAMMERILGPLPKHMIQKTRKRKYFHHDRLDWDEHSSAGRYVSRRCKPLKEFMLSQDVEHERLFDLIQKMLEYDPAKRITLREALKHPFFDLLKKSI
compound,measurement,setting,value
COc1cc(N2CCC(N3CCN(C)CC3)CC2)ccc1Nc1ncc(Cl)c(Nc2ccccc2P(C)(C)=O)n1 [BRIGATINIB],inhibition,[1],< 90%
same,IC90,[2],129 nM
same,TGI,BaF3 [3],88%
same,inhibition,[4],< 90%
same,IC50,[5],4.4 nM
same,IC90,[6],38 nM
same,IC50 at 72 h,in vitro,3.21 µM
same,IC50,[7],> 1000 nM
same,inhibition,[8],< 90%
same,MSD,NCI-H2228,62 days
same,inhibition,[9],< 90%
same,inhibition,[10],Active
same,inhibition,[11],Active
same,inhibition,BaF3 [12],Active
same,IC50,[13],493 nM
same,inhibition,[14],< 90%
same,inhibition,[15],< 90%
same,IC50,[16],23 nM
same,inhibition,[17],Active
same,inhibition,NCI-H3122,Active
same,IC90,[18],242 nM
same,IC50,[19],26 nM
same,IC90,[20],366 nM
same,inhibition,[21],< 90%
same,inhibition,[22],< 90%
same,IC50,[23],> 1000 nM
same,inhibition,[24],< 90%
same,inhibition,[25],< 90%
same,inhibition,[26],< 90%
same,IC50,[27],466 nM
